The results in this text go back to patent US20190053492A1, “SUBSTITUTED PYRIDINE COMPOUNDS AS PESTICIDES” (Bayer CropScience Aktiengesellschaft, priority 2016, published 2019).

Molecules are shown by their SMILES.

A short description of series [1]: log P by HPLC on reversed-phase column (C 18), EEC Directive 79/831 Annex V.A8. The class given is physicochemical. The following applies: 55° C.; for LOGP_HCOOH: log P (HCOOH). How it is done: Temperature: 55° C. […] Called log P (HCOOH) in the table. […] Called log P (neutral) in the table.
In another series the test system is Ctenocephalides felis. Nature of the series: Ctenocephalides felis oral test. Format: in vivo. The conditions noted are these: application rate 100 ppm in citrated cattle blood, after 2 days, adult cat fleas. Here is the method:
Ctenocephalides felis—Oral Test Solvent: dimethyl sulphoxide To produce a suitable active ingredient formulation, 10 mg of active ingredient are mixed with 0.5 ml of dimethyl sulphoxide. Dilution with citrated cattle blood gives the desired concentration. About 20 unfed adult cat fleas (Ctenocephalides felis) are placed into a chamber which is closed at the top and bottom with gauze. A metal cylinder whose bottom end is closed with parafilm is placed onto the chamber. The cylinder contains the blood/active ingredient formulation, which can be imbibed by the fleas through the parafilm membrane. After 2 days, the kill in % is determined. 100% means that all of the fleas have been killed; 0% means that none of the fleas have been killed.

A further series deals with Lucilia cuprina. Nature of the series: Lucilia cuprina test. Format: in vivo. The following applies: application rate 100 ppm, after 2 days, L1 larvae. Here is the method:
Lucilia cuprina Test Solvent: dimethyl sulphoxide To produce a suitable active ingredient formulation, 10 mg of active ingredient are mixed with 0.5 ml of dimethyl sulphoxide, and the concentrate is diluted with water to the desired concentration. About 20 L1 larvae of the Australian sheep blowfly (Lucilia cuprina) are transferred into a test vessel containing minced horsemeat and the active ingredient formulation of the desired concentration. After 2 days, the kill in % is determined. 100% means that all the larvae have been killed; 0% means that no larvae have been killed.

Another series concerns Phaedon cochleariae. Nature of the series: Phaedon cochleariae spray test. The conditions noted are these: after 7 days, Chinese cabbage leaf discs. The class given is in vivo. A digest of the protocol:
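Chinese cabbage leaf discs sprayed with compound in acetone/DMF and emulsifier-containing water, then infested with mustard beetle larvae once dry. Efficacy in % scored after 7 days (100% = all larvae killed, 0% = none).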

Another series deals with Spodoptera frugiperda. Nature of the series: Spodoptera frugiperda spray test. Format: in vivo. The following applies: after 7 days, maize leaf discs. In short, it runs like this:
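Maize leaf discs were sprayed with compound formulated in acetone/DMF and emulsifier-containing water, dried, then infested with Spodoptera frugiperda caterpillars. Percent kill was scored after 7 days, from 100% (all dead) to 0% (none dead).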

Where [2] appears, read: acidic range at pH 2.7, 0.1% aqueous formic acid and acetonitrile, HPLC on reversed-phase column (C 18).
[3] abbreviates: log P, neutral range, HPLC on reversed-phase column (C 18).
The mark [4] stands for this setting: acidic range pH 2.7, 0.1% aqueous formic acid and acetonitrile, reversed-phase column (C 18).

`N#Cc1ccc(CNC(=O)c2cc(-c3ccc(SC4CC4)cc3)cc(NC(=O)C3CC3)n2)cc1` [Example I-142]: in series [1] (setting [2]), the LOGP_HCOOH is recorded as 4.07. In addition, the LOGP_NEUTRAL in series [1] (setting [3]) was 3.86. Also, the “efficacy (kill in %)” value in the series with Ctenocephalides felis was determined as 100%; with Lucilia cuprina it was 90%. Also, the “efficacy (beetle larvae killed)” value in the series on Phaedon cochleariae (application rate 100 g/ha) and in the series with Phaedon cochleariae (application rate 500 g/ha) was 100% each time.

For the compound `CC(NC(=O)c1cc(-c2ccc(C(F)(F)C(F)(F)F)c(F)c2)cc(NC(=O)C2CC2)n1)c1ccc(C#N)cc1` (centres unmarked) [Example I-247], in series [1] (setting [4]), the LOGP_HCOOH is 4.56. In series [1] (log P (neutral), HPLC reversed-phase column (C 18)), this compound displayed an LOGP_NEUTRAL of 4.49. Moreover, the “efficacy (kill in %)” value in the series on Ctenocephalides felis and in the series on Lucilia cuprina was 100% in each case. For the same compound, the “efficacy (beetle larvae killed)” value in the series on Phaedon cochleariae (application rate 100 g/ha) and in the series with Phaedon cochleariae (application rate 500 g/ha) was 100% each time. Also, the “efficacy (caterpillars killed)” value in the series on Spodoptera frugiperda (application rate 100 g/ha) and with Spodoptera frugiperda (application rate 500 g/ha) was 100% throughout.

Consider `N#Cc1ccc(CNC(=O)c2cc(-c3ccc(S(=O)(=O)C(F)(F)F)cc3)cc(NC(=O)C3CC3)n2)cc1F` [Example I-120], for which the LOGP_HCOOH in series [1] (setting [2]) is reported as 3.74. In series [1] (setting [3]), this compound registered an LOGP_NEUTRAL of 3.65. Further, the “efficacy (kill in %)” value in the series with Ctenocephalides felis and in the series on Lucilia cuprina was 100% each time. Besides, the “efficacy (beetle larvae killed)” value with Phaedon cochleariae (application rate 100 g/ha) and in the series on Phaedon cochleariae (application rate 500 g/ha) was 100% throughout. In addition, the “efficacy (caterpillars killed)” value in the series on Spodoptera frugiperda (application rate 100 g/ha) and in the series with Spodoptera frugiperda (application rate 500 g/ha) was 100% in each case.

In turn, `CC(F)(F)c1ccc(-c2cc(NC(=O)C3CC3)nc(C(=O)NCc3ccc(C#N)cc3)c2)cc1` [Example I-192] returned an LOGP_HCOOH in series [1] (setting [2]) of 3.42. In addition, the LOGP_NEUTRAL in series [1] (setting [3]) was determined as 3.40. The “efficacy (kill in %)” value in the series with Ctenocephalides felis was 100%; in the series with Lucilia cuprina it was 90%. Also, the “efficacy (beetle larvae killed)” value in the series on Phaedon cochleariae (application rate 100 g/ha) and with Phaedon cochleariae (application rate 500 g/ha) was 100% each time. Also, the “efficacy (caterpillars killed)” value with Spodoptera frugiperda (application rate 100 g/ha) and in the series with Spodoptera frugiperda (application rate 500 g/ha) was 100% each time.

For the compound `N#Cc1ccc(CNC(=O)c2cc(-c3ccc(S(=O)(=O)C(F)(F)F)cc3)cc(NC(=O)C3CC3)n2)cc1` [Example I-096], the LOGP_NEUTRAL in series [1] (setting [3]) is reported as 3.47. In addition, the “efficacy (kill in %)” value in the series with Ctenocephalides felis and with Lucilia cuprina was 100% throughout. The “efficacy (beetle larvae killed)” value in the series on Phaedon cochleariae (application rate 100 g/ha) and with Phaedon cochleariae (application rate 500 g/ha) was 100% each time. Also, the “efficacy (caterpillars killed)” value in the series on Spodoptera frugiperda (application rate 100 g/ha) and with Spodoptera frugiperda (application rate 500 g/ha) was 100% each time.

With `CCC(=O)Nc1cc(-c2ccc(C(F)(F)F)cc2)cc(C(=O)NCc2ccc(C#N)cc2)n1` [Example I-048], the LOGP_HCOOH in series [1] (setting [4]) is 4.59. For the same compound, the LOGP_NEUTRAL in series [1] (setting [3]) was 3.47. In the series on Lucilia cuprina, the “efficacy (kill in %)” value turned out to be 100%. Further, the “efficacy (beetle larvae killed)” value in the series on Phaedon cochleariae (application rate 500 g/ha) stood at 100%. Also, the “efficacy (caterpillars killed)” value with Spodoptera frugiperda (application rate 100 g/ha) stood at 83%; with Spodoptera frugiperda (application rate 500 g/ha), 100%.

`O=C(NC1CCC1)c1cc(-c2ccc(OC(F)(F)F)cc2)cc(NC(=O)C2CC2)n1` [Example I-133] had an LOGP_HCOOH in series [1] (setting [2]) of 4.00. Moreover, the “efficacy (kill in %)” value in the series on Ctenocephalides felis and with Lucilia cuprina was 100% each time. Further, the “efficacy (caterpillars killed)” value with Spodoptera frugiperda (application rate 100 g/ha) and in the series with Spodoptera frugiperda (application rate 500 g/ha) was 100% each time.

In series [1] (setting [4]), `O=C(NCc1ccc(Cl)cc1)c1cc(-c2ccc(C(F)(F)F)cc2)cc(NC(=O)C2CC2)n1` [Example I-008] registered an LOGP_HCOOH of 4.48. This compound gave an LOGP_NEUTRAL in series [1] (setting [3]) of 4.34. Moreover, the “efficacy (kill in %)” value in the series on Ctenocephalides felis stood at 100%; in the series with Lucilia cuprina, 95%. For the same compound, the “efficacy (caterpillars killed)” value in the series on Spodoptera frugiperda (application rate 100 g/ha) and with Spodoptera frugiperda (application rate 500 g/ha) was 100% throughout.

For the compound `O=C(Nc1ccc(Cl)cc1)c1cc(-c2ccc(C(F)(F)F)cc2)cc(NC(=O)C2CC2)n1` [Example I-021], the LOGP_HCOOH in series [1] (setting [4]) is listed as 4.96. In series [1] (setting [3]), this compound gave an LOGP_NEUTRAL of 5.08. Further, in the series with Lucilia cuprina, the “efficacy (kill in %)” value amounted to 85%. For the same compound, in the series with Phaedon cochleariae (application rate 500 g/ha), the “efficacy (beetle larvae killed)” value amounted to 100%. In the series with Spodoptera frugiperda (application rate 500 g/ha), the “efficacy (caterpillars killed)” value turned out to be 100%.
